Reference: patent US20090280169A1, “Compositions of peptides and processes of preparation thereof” (Merrion Research III Limited, priority 2008, published 2009)
“Also recorded” adds a separate entry of the source. Non-standard residues stand in square brackets, D forms with d. Residues, ends and D or L forms follow the SMILES beside them. dPhe(4-NH2) = Nc1ccc(C[C@@H](N)C(=O)O)cc1; dPhe(4-Cl) = N[C@H](Cc1ccc(Cl)cc1)C(=O)O; Phe(4-NH2) = Nc1ccc(C[C@H](N)C(=O)O)cc1; d2Nal = N[C@H](Cc1ccc2ccccc2c1)C(=O)O; Lys(iPr) = CC(C)NCCCC[C@H](N)C(=O)O; d3Pal = N[C@H](Cc1cccnc1)C(=O)O

Test: Gelation of acyline in pH 6.8 buffer with sodium caprate and Tween 80 (filtration, HPLC)
Assay type: physicochemical
Procedure: Different concentrations of acyline composition are prepared by adding acyline to pH 6.8 buffer solution either at room temperature or 37° C. All acyline solutions contain 0.6 mg/mL sodium caprate (sodium caprate is referred as C10 in the figures). All samples are centrifuged and filtered prior to analysis. Samples are analyzed by reverse phase HPLC with UV detection. 10 mg acyline is transferred into […] volumetric flask. A pH 6.8 buffer solution is preheated to 37° C. Then, 100 mL pre-heated buffer solution and 0.6 mg/mL sodium caprate is added to the flask to prepare a 0.1 mg/mL acyline sample. In a similar manner, Tween 80 is added to prepare a 0.1 mg/mL acyline solution with 1% Tween 80. Samples are shaken in a temperature controlled water bath at 37° C. 5 mL samples are taken at 1, 5, 10, 15, 20, 30 and 120 minutes after mixing acyline with the buffer solution. Samples are filtered immediately through 0.45 μm filters and the first 3 mL is discarded. Filtered samples are analyzed, undiluted, by reverse phase HPLC with UV detection. All samples are prepared in duplicate and the concentration was obtained for the analysis from the mean of the duplicates. The result of comparison of 1% and 0% Tween 80 at 0.1 mg/mL acyline sample is graphically recorded in FIG. 5. […] A similar experimental procedure as Example 4 is used to prepare acyline sample for example 5. The result of comparison of 5 mg/mL, 1.0 mg/mL, 0.1 mg/mL, and 0.1% Tween in phosphate buffer containing 0.6 mg/mL of sodium caprate and 0.1 mg/mL acyline is graphically recorded in FIG. 6. […] A similar experimental procedure as Example 4 is used to prepare acyline sample for example 6. The result of comparison of 1% and 1 mg/mL Tween 80 in 0.1 and 0.01 mg/mL acyline sample is graphically recorded in FIG. 7. […] A similar experimental procedure as Example 4 is used to prepare acyline sample for example 7. The result of comparison of 0.01 mg/mL acyline samples having 0.1%, 0.5% and 1% Tween 80 is graphically recorded in FIG. 8.

CC(=O)Nc1ccc(C[C@H](NC(=O)[C@H](CO)NC(=O)[C@@H](Cc2cccnc2)NC(=O)[C@@H](Cc2ccc(Cl)cc2)NC(=O)[C@@H](Cc2ccc3ccccc3c2)NC(C)=O)C(=O)N[C@H](Cc2ccc(NC(C)=O)cc2)C(=O)N[C@@H](CC(C)C)C(=O)N[C@@H](CCCCNC(C)C)C(=O)N2CCC[C@H]2C(=O)N[C@H](C)C(N)=O)cc1 [acyline, Ac-D2Nal-D4Cpa-D3Pal-Ser4Aph(Ac)-D4Aph(Ac)-Leu-ILys-Pro-DAla-NH2] (Ac-[d2Nal][dPhe(4-Cl)][d3Pal]S[Phe(4-NH2)](Ac)[dPhe(4-NH2)](Ac)L[Lys(iPr)]P[dA]-NH2)
gelation of acyline (0.01 mg/mL acyline, 0.6 mg/mL sodium caprate, 1% Tween 80): significantly reduces the gelation
gelation of acyline (0.1 mg/mL acyline, 0.6 mg/mL sodium caprate, 1% Tween 80): successfully reduces the gelation; also recorded: completely inhibit the gelation
gelation of acyline (0.1 mg/mL acyline, 37° C., 0.6 mg/mL sodium caprate alone (0% Tween 80)): insufficient to reduce the gelation
